# Measured values as given in the NIST ThermoML archive (doi:10.1016/j.fluid.2013.08.029).
# ± gives the expanded uncertainty stated by the source.
# Settings: 101.33 kPa, Liquid; for speed of sound: Sing-around technique in a fixed-path interferometer; for mass density: Vibrating tube method
speed of sound (288.15 K),speed of sound (293.15 K),mass density (293.15 K),speed of sound (298.15 K),speed of sound (303.15 K),mass density (303.15 K),speed of sound (308.15 K),speed of sound (313.15 K),mass density (313.15 K),speed of sound (318.15 K),mass density (288.15 K),mass density (298.15 K),mass density (308.15 K),mass density (318.15 K),Compound
1677.5 ± 2.2 m/s,1665.6 ± 2.2 m/s,1113.35 ± 0.16 kg/m3,1653.9 ± 2.2 m/s,1642.2 ± 2.2 m/s,1106.33 ± 0.16 kg/m3,1630.6 ± 2.2 m/s,1618.9 ± 2.2 m/s,1099.26 ± 0.16 kg/m3,1607.3 ± 2.2 m/s,–,–,–,–,"OCCO [1,2-ethanediol]"
1668.6 ± 2.2 m/s,1654.9 ± 2.1 m/s,1196.72 ± 0.15 kg/m3,1641.4 ± 2.1 m/s,1628.7 ± 2.1 m/s,1189.92 ± 0.15 kg/m3,1616.9 ± 2.1 m/s,1605.1 ± 2.1 m/s,1183.17 ± 0.15 kg/m3,1593.9 ± 2.1 m/s,1199.9 ± 0.15 kg/m3,1193.34 ± 0.15 kg/m3,1186.52 ± 0.15 kg/m3,1179.54 ± 0.15 kg/m3,"CCCCn1cc[n+](C)c1C.F[B-](F)(F)F [1-butyl-2,3-dimethylimidazolium tetrafluoroborate]"
1565.2 ± 2.9 m/s,1552.5 ± 2.9 m/s,1180.34 ± 1.2 kg/m3,1540.2 ± 2.9 m/s,1528.2 ± 2.9 m/s,1173.35 ± 1.2 kg/m3,1516.3 ± 2.9 m/s,1504.6 ± 2.9 m/s,1166.36 ± 1.2 kg/m3,1493.1 ± 2.9 m/s,1183.92 ± 1.2 kg/m3,1176.85 ± 1.2 kg/m3,1169.85 ± 1.2 kg/m3,1162.85 ± 1.2 kg/m3,CCCCCn1cc[n+](C)c1.F[B-](F)(F)F [1-methyl-3-pentyl-imidazolium tetrafluoroborate]
1678.6 ± 3 m/s,1644.2 ± 3 m/s,1260.52 ± 1.4 kg/m3,1617.5 ± 3 m/s,1596.4 ± 2.9 m/s,1253.05 ± 1.4 kg/m3,1578.9 ± 2.9 m/s,1563.7 ± 2.9 m/s,1246.17 ± 1.4 kg/m3,1550.2 ± 2.9 m/s,1264.08 ± 1.4 kg/m3,1256.87 ± 1.4 kg/m3,1249.57 ± 1.4 kg/m3,1242.76 ± 1.4 kg/m3,CCCCCn1cc[n+](C)c1.[Br-] [1-pentyl-3-methylimidazolium bromide]
